The results in this text go back to patent publication US20230265043A1, “CRYSTALLINE FORM OF PHENTERMINE HYDROCHLORIDE AND PROCESS FOR OBTAINING SAME” (priority 2020, published 2023).

Counter-ions that a name gives are not always drawn.

What all share (type): physicochemical
Series [1] can be described thus: dynamic water vapor adsorption (DVS) at 60%, 80% and 95% relative humidity. The note with it: for gain by mass at 80% relative humidity: 25° C., equilibrium reached; for hygroscopicity classification according to the British Pharmacopoeia, Ed. 2016: based on mass gain at 80% relative humidity. The source says:
(§1) In all humidity conditions, the equilibrium criterion of mass variation of less than 0.001% was reached.
FIG. 13 presents dynamic water vapor sorption experiments under different humidity conditions for the anhydrous and monohydrate forms of phentermine hydrochloride. It is noted that in all analyzed humidity conditions, the system reached equilibrium, with the monohydrate form being much less hygroscopic than the anhydrous form. Phentermine hydrochloride in anhydrous form has a gain of about 7.5% by mass at 80% relative humidity, being classified as hygroscopic according to the British Pharmacopoeia (BF) (British Pharmacopoeia, Ed. 2016), which can cause dosing problems if the active is manipulated in high humidity conditions. In addition, the fact that the anhydrous form is hygroscopic allows its conversion to the monohydrate form in case of exposure to excessive amounts of water.

The nature of series [2]: DSC heating and X-ray diffraction after heating (conversion of monohydrate to anhydrous form). The note with it: 10° C./min, nitrogen flow, XRD after heating at 60° C. The method, then: (B), when it converts to anhydrous form.
(§2) The Differential Scanning calorimetry (DSC) experiment (FIG. 8) is performed under an inert atmosphere using nitrogen flow. Therefore, for phentermine hydrochloride monohydrate, such flow favors water loss, and the experiment will have underestimated results.
Furthermore, the melting of the anhydrous form occurs around 200° C. in which the active also starts the decomposition process.

Series [3] can be described thus: accelerated stability study in oven, 50° C. and 75% relative humidity, 30 days. The protocol: Phentermine hydrochloride monohydrate's stability was tested by keeping 25 g of sample in an oven under conditions of 50° C. and 75% relative humidity for 30 days, as recommended by the FDA guide (Food and Drug Administration, Guidance for Industry Q1A(R2) Stability Testing of New Drug Substances and Products, November 2003 rev.2).

Series [4] can be described thus: dynamic water vapor desorption, relative humidity 95% to 0% at 25° C. As to conditions: desorption 95% to 0% RH in steps of 5%, 25° C. (FIG. 9). The method, then: as §1, §2

`CC(C)(N)Cc1ccccc1.Cl` [2-methyl-1-phenylpropan-2-amine, reference compound]: the “gain by mass at 80% relative humidity” value in series [1] (80% relative humidity) was “about 7.5 % by mass”. Further, in series [1], the “hygroscopicity classification according to the British Pharmacopoeia, Ed. 2016” value was “hygroscopic”.
Consider `CC(C)(N)Cc1ccccc1` [Phentermine hydrochloride monohydrate, phentermine hydrochloride monohydrate], for which the “temperature of conversion to the anhydrous form on heating” value in series [2] is “above 50 °C”. Further, the “polymorphic conversion after accelerated stability test (infrared absorption and X-ray diffraction)” value in series [3] is “no polymorphic conversion”. Besides, in series [1] (80% relative humidity), the “times less hygroscopic than the anhydrous form” value was found to be 10 times and the “gain by mass at 80% relative humidity” value is “about 0.75 % by mass”. Further, the “hygroscopicity classification according to the British Pharmacopoeia, Ed. 2016” value in series [1] was “slightly hygroscopic”. The “relative humidity in which the form is stable” value in series [4] is reported as “higher than 50%”.
